Results published in patent publication US5525599A, “7-substituted-amino-3-substituted-3-cephem-4-carboxylic acids” (Eli Lilly and Company, priority 1993, dated 1996).
≈ marks a conversion by molar mass, not a printed value.

How the values were obtained:
E. coli (EC14) = assay: In vitro activity (MIC), agar dilution method; format: cell-based; conditions: Escherichia coli
Procedure: (§1) Cephalosporins 9a-o were assayed against a broad array of Gram-positive and Gram-negative bacteria in Mueller-Hinton agar by the 2-fold serial dilution method, (Kirst, H. A.; J. Antibiot. 1982, 35, 1675).
(§2) Test compounds were diluted to an appropriate range of concentrations in 0.1M phosphate buffer (pH 7), incorporated into Mueller-Hinton agar (difco) supplemented with 1% Bacto-Supplement C (Difco) at 50° C. and allowed to solidify in petri dishes. Fresh overnight cultures of test bacteria were diluted to approximately 1×10^4 cells/mL aand applied in […] to the surface of the agar plates. The inoculated plates were incubated overnight at 35° C. in ambient air. MIC endpoints were recorded as the lowest antibiotic concentrations that inhibited the development of visible bacterial growth on the plates.

E. coli (N10) = assay: In vitro activity (MIC), agar dilution method; format: cell-based; conditions: Escherichia coli
Procedure: as §1, §2

E. coli (TEM) = assay: In vitro activity (MIC), agar dilution method; format: cell-based; conditions: Escherichia coli
Procedure: as §1, §2

Enter. faecalis (2041) = assay: In vitro activity (MIC), agar dilution method; format: cell-based; conditions: Enterococcus faecalis
Procedure: as §1, §2

Enter. faecium (X66) = assay: In vitro activity (MIC), agar dilution method; format: cell-based; conditions: Enterococcus faecium
Procedure: as §1, §2

H. influenzae (76) = assay: In vitro activity (MIC), agar dilution method; format: cell-based; conditions: Haemophilus influenzae
Procedure: as §1, §2

H. influenzae (C.L.) = assay: In vitro activity (MIC), agar dilution method; format: cell-based; conditions: Haemophilus influenzae
Procedure: as §1, §2

K. pneumonia (KAE) = assay: In vitro activity (MIC), agar dilution method; format: cell-based; conditions: Klebsiella pneumoniae
Procedure: as §1, §2

K. pneumonia (X26) = assay: In vitro activity (MIC), agar dilution method; format: cell-based; conditions: Klebsiella pneumoniae
Procedure: as §1, §2

K. pneumonia (X68) = assay: In vitro activity (MIC), agar dilution method; format: cell-based; conditions: Klebsiella pneumoniae
Procedure: as §1, §2

Staph. aureus (S13E) = assay: In vitro activity (MIC), agar dilution method; format: cell-based; conditions: Staphylococcus aureus
Procedure: as §1, §2

Staph. aureus (V41) = assay: In vitro activity (MIC), agar dilution method; format: cell-based; conditions: Staphylococcus aureus
Procedure: as §1, §2

Staph. aureus (X1.1) = assay: In vitro activity (MIC), agar dilution method; format: cell-based; conditions: Staphylococcus aureus
Procedure: as §1, §2

Staph. aureus (X400) = assay: In vitro activity (MIC), agar dilution method; format: cell-based; conditions: Staphylococcus aureus
Procedure: as §1, §2

Staph. epiderm. (222) = assay: In vitro activity (MIC), agar dilution method; format: cell-based; conditions: Staphylococcus epidermidis
Procedure: as §1, §2

Strept. pyogenes (C203) = assay: In vitro activity (MIC), agar dilution method; format: cell-based; conditions: Streptococcus pyogenes
Procedure: as §1, §2

other Gram(-) bacteria = assay: In vitro activity (MIC), agar dilution method; format: cell-based
Gram-positive bacteria = conditions: in words; background statement; cited from earlier work

CN[C@H](CC(C)C)C(=O)N[C@H]1C(=O)N[C@@H](CC(N)=O)C(=O)N[C@H]2C(=O)N[C@H]3C(=O)N[C@H](C(=O)N[C@H](C(=O)O)c4cc(O)cc(O)c4-c4cc3ccc4O)[C@H](O)c3ccc(c(Cl)c3)Oc3cc2cc(c3O[C@@H]2O[C@H](CO)[C@@H](O)[C@H](O)[C@H]2O[C@H]2C[C@](C)(N)[C@H](O)[C@H](C)O2)Oc2ccc(cc2Cl)[C@H]1O [Vanc, Vancomycin, reference compound]
MIC (E. coli (EC14)): 128 µg/mL (≈ 88.3 µM)
MIC (E. coli (N10)): 128 µg/mL (≈ 88.3 µM)
MIC (E. coli (TEM)): 128 µg/mL (≈ 88.3 µM)
MIC (Enter. faecalis (2041)): 2 µg/mL (≈ 1.38 µM)
MIC (Enter. faecium (X66)): 0.5 µg/mL (≈ 0.345 µM)
MIC (H. influenzae (76)): 128 µg/mL (≈ 88.3 µM)
MIC (H. influenzae (C.L.)): 64 µg/mL (≈ 44.2 µM)
MIC (K. pneumonia (KAE)): 128 µg/mL (≈ 88.3 µM)
MIC (K. pneumonia (X26)): 128 µg/mL (≈ 88.3 µM)
MIC (K. pneumonia (X68)): 128 µg/mL (≈ 88.3 µM)
MIC (Staph. aureus (S13E)): 0.5 µg/mL (≈ 0.345 µM)
MIC (Staph. aureus (V41)): 0.5 µg/mL (≈ 0.345 µM)
MIC (Staph. aureus (X1.1)): 0.5 µg/mL (≈ 0.345 µM)
MIC (Staph. aureus (X400)): 0.5 µg/mL (≈ 0.345 µM)
MIC (Staph. epiderm. (222)): 0.5 µg/mL (≈ 0.345 µM)
MIC (Strept. pyogenes (C203)): 0.5 µg/mL (≈ 0.345 µM)
MIC (other Gram(-) bacteria): 128 µg/mL (≈ 88.3 µM)
activity against Gram-positive bacteria including methicillin-resistant staphylococci (Gram-positive bacteria): potent activity only against the Gram-positive bacteria including methicillin-resistant staphylococci
